From ChEMBL document CHEMBL1201862, “PubChem BioAssay data set” (2004)
Activity calls are given as the source filed them.

Key:
[1] = target: Cytochrome P450 3A4 (Homo sapiens, UniProt P08684); settings: Potency;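 further: confirmatory qHTS run detecting inhibitors and substrates of CYP3A4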
[2] = target: T1, RNA-binding protein pos-1 (Caenorhabditis elegans, UniProt G5EF15); test: inhibitors of POS-1/mex-3 RNA binding, dose response, biochemical, fluorescence polarization (AID 1964);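 further: purified POS-1 fused to maltose binding protein made in E. coli; potency of compounds blocking POS-1 binding to fluorescent RNA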
T1 sequence (G5EF15 whole entry): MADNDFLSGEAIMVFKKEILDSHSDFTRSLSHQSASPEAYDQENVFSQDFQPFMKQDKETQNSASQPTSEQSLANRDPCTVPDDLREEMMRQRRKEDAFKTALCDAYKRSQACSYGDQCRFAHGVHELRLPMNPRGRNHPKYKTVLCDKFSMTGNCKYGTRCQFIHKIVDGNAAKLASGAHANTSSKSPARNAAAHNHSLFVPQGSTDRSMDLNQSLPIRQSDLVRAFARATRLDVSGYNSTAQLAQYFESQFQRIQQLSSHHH

[3] = target: T2, Zinc finger protein mex-5 (Caenorhabditis elegans, UniProt Q9XUB2); test: MEX-5/TCR-2 RNA interaction inhibitors, dose response, biochemical, C. elegans, fluorescence polarization (AID 1960)
T2 sequence (Q9XUB2 whole entry): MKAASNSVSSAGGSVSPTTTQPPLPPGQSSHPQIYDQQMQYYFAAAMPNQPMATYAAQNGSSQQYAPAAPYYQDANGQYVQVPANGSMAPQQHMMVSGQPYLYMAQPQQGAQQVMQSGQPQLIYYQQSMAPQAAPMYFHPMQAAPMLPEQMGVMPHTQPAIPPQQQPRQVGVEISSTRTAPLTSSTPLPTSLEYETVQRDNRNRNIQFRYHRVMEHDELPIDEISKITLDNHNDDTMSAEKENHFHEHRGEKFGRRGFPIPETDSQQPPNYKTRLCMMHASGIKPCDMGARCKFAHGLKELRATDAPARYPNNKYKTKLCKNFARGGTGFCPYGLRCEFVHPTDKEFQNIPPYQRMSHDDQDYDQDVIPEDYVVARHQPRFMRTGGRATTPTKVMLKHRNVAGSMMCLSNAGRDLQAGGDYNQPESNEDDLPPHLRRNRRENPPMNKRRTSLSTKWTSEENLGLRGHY

[4] = microbe, parasite or virus in culture; type: functional; settings: Mycobacterium tuberculosis
[5] = test system: Streptococcus sp. 'group A'; test: growth inhibition of control SK(-) GAS strain, dose response, counter-screen for streptokinase expression inhibitor project, luminescence, kanamycin, BacTiterGlo, confirmation (AID 1900); type: functional, organism-based
[6] = test system: Streptococcus; test: Group A Streptococcus viability loss, dose response, counter-screen for streptokinase expression inhibitor project, luminescence, BacTiterGlo (AID 1915); type: functional, organism-based;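 further: potency for reduction of bacterial viability or growth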
[7] = NIH-3T3 fibroblast cytotoxicity, dose response, cytotoxicity control, cell-based, fluorescence, Alamar Blue, secondary assay (AID 2327); type: functional;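 further: NIH-3T3 mouse fibroblasts cultured with fluconazole at 8 µg/mL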
[8] = C. albicans growth with fluconazole, confirmation, fluorescence, retest (AID 2467); type: functional, cell-based
[9] = Shn3 3'UTR reporter inhibitors, dose response, cell-based, Clone20 osteoblasts, firefly luciferase, cherry-picked (AID 624132); type: functional;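 further: firefly luciferase luminescence from reporter carrying the Shn3 3'UTR in osteoblasts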
[10] = HepG2 cell cytotoxicity, dose response, cytotoxicity control for Shn3 inhibitor project, CellTiter-Glo, cherry-picked (AID 624134); type: functional, cell-based
[11] = control 3'UTR Renilla luciferase suppression, dose response, counter-screen for Shn3 inhibitor project, cell-based, Clone20-Shn3RL, cherry-picked (AID 624133); type: functional
[12] = target: Large T antigen (Simian virus 40, UniProt P03070); type: functional, Betapolyomavirus macacae;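 further: Confirmatory-stage PubChem screen for compounds that inhibit SV40 T antigen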
Large T antigen, sequence (P03070 whole entry): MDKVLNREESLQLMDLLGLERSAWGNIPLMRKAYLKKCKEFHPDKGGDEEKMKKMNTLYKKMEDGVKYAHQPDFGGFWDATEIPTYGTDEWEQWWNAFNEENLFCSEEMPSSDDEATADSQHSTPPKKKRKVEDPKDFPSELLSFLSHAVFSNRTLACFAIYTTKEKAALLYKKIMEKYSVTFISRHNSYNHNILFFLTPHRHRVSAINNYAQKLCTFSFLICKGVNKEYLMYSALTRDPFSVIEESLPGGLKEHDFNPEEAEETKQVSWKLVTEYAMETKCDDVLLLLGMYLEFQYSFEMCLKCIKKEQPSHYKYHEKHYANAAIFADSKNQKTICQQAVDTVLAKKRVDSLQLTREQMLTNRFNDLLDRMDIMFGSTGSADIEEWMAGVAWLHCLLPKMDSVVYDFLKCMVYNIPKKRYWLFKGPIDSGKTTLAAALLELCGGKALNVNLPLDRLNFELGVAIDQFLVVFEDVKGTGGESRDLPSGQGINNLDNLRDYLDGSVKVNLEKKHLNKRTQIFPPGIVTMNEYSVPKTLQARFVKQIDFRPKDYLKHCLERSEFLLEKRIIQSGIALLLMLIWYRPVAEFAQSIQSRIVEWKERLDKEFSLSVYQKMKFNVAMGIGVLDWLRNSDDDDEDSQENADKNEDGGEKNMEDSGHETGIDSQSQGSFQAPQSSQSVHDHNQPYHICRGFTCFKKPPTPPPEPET

[13] = target: T3, Rac GTPase-activating protein 1 (Homo sapiens, UniProt Q9H0H5); test: MgcRacGAP GTPase-activating activity inhibitors, confirmation, biochemical, ADP Hunter fluorescence, primary and confirmatory (AID 624330); type: functional
T3 sequence (Q9H0H5 whole entry): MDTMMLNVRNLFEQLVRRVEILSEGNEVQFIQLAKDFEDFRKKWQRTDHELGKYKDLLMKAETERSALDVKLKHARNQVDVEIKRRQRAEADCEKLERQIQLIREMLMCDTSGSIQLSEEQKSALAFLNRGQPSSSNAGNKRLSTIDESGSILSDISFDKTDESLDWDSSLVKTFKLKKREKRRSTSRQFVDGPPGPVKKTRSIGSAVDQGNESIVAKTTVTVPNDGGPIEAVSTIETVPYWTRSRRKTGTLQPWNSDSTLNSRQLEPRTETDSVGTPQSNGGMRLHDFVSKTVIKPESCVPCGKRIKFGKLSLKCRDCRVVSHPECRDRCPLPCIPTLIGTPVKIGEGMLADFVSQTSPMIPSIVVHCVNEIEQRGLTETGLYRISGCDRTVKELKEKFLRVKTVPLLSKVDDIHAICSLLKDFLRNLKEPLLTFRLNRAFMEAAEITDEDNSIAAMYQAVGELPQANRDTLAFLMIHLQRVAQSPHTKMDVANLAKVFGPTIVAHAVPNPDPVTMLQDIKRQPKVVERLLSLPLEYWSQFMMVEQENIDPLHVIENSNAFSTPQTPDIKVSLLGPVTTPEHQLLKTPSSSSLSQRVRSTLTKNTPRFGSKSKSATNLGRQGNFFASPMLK

[14] = target: T4, Microphthalmia-associated transcription factor (Homo sapiens, UniProt O75030); test: TRPM1 promoter luciferase signal decrease, dose response, MITF inhibitor project, cell-based, SK-MEL-5, cherry-picked, set 3 (AID 493073); type: functional
T4 sequence (O75030 whole entry): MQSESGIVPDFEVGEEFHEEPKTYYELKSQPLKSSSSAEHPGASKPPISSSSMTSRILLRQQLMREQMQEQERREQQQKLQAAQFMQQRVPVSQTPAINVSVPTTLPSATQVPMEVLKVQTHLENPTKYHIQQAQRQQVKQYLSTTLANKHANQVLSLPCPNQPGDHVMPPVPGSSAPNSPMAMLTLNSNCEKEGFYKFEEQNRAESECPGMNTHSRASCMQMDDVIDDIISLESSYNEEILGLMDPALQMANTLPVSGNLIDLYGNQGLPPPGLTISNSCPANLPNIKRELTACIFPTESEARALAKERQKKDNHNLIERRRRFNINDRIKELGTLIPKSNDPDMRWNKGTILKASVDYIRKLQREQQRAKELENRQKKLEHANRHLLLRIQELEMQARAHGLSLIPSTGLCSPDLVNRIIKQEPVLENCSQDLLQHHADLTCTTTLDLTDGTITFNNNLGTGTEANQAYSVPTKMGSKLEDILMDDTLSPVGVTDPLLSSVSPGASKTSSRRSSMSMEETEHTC

Cytochrome P450 3A4, sequence (P08684 whole entry, the tested form may be a part): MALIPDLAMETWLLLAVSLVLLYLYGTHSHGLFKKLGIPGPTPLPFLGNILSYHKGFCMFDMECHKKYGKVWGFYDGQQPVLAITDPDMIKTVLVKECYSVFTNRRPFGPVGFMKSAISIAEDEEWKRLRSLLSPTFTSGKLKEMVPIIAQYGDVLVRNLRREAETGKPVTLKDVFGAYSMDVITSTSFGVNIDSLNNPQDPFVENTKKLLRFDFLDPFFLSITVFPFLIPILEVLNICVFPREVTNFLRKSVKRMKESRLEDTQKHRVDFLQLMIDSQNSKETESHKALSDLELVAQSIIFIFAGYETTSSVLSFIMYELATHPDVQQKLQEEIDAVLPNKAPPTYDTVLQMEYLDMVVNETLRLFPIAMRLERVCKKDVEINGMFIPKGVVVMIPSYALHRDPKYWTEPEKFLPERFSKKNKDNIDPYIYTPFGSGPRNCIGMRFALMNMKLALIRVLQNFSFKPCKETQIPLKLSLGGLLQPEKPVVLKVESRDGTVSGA

COc1ccc(-c2coc3cc(OC(C)=O)cc(OC(C)=O)c3c2=O)cc1
AC50 [1]: 31.6 µM (inconclusive)

CC(=O)c1c(O)c(C)c(O)c2c1OC1=CC(=O)C(C(C)=O)C(=O)[C@@]12C (some centres not stated)
AC50 [1]: 12.6 µM (inconclusive)

COC(=O)c1ccc(C23CC4(C2)[C@H](CN(Cc2ccc(C(F)(F)F)cc2)[C@@H]4c2ccccc2)C3c2ccccc2)cc1 (some centres not stated)
EC50 [2]: > 300 µM (not active)
EC50 [3]: > 300 µM (not active)
AC50 [1]: 25.1 µM (inconclusive)

CCCSc1nn2c(=O)c3ccccc3nc2s1
CC50 [4]: > 40 µM (active)

CCCCN(CCCC)c1nc(-c2ccncc2)nc2ccccc12
EC50 [5]: 5.38 µM (active)
CC50 [4]: 29.3 µM (active)
EC50 [6]: 8.44 µM (active)

CCC(=O)N1c2ccc(S(=O)(=O)CCC(=O)N3CCn4c3nc3ccccc34)cc2CC1C (configuration not stated)
EC50 [7]: 42.9 µM (active)
EC50 [8]: 4.5 µM (active)
CC50 [4]: > 40 µM (active)

CCc1ccc(NCc2ccc(OC)c(Cn3ccnc3)c2)cc1
CC50 [4]: 24.2 µM (active)

c1ccc(CN2CCN(c3ncnc4c3[nH]c3ccccc34)CC2)cc1
AC50 [9]: 2.06 µM (active)
AC50 [10]: 31.4 µM (active)
AC50 [11]: 5.4 µM (active)

C=C1C(=O)OC2CC1C(OC(C)=O)CC(C)=CCCC(C)=CCCC2(C)O (configuration not stated)
AC50 [9]: 0.91 µM (active)
AC50 [10]: 15.1 µM (active)
AC50 [11]: 4.19 µM (active)

Cc1cc(O)nc(N/N=C/c2c[nH]c3ccccc23)n1
IC50 [12]: 24.6 µM (active)

O=C(COc1cccc2cccnc12)N/N=C/c1ccc(O)cc1
IC50 [12]: 19.5 µM (active)
IC50 [13]: 77 µM (active)

COc1cc(/C=N/N2C(=O)C3C4C=CC(CC4)C3C2=O)ccc1O (configuration not stated)
IC50 [12]: 10.1 µM (active)

C=C1C(=O)O[C@@]23[C@H]1CC[C@@H](C)[C@@H]2CC[C@@]1(C)O[C@@H]31 [ARTEANNUIN B]
AC50 [14]: 5.22 µM (active)

COc1ccc2c(c1)OCC(Cc1ccc(OC)c(OC(C)=O)c1)C2=O (configuration not stated) [DEOXYSAPPANONE B 7,3'-DIMETHYL ETHER ACETATE]
AC50 [1]: 39.8 µM (inconclusive)

Cc1cc(O)c(C=O)c2c1C(=O)Oc1c(COC(=O)/C=C/C(=O)O)c(O)c(C(=O)O)c(C)c1O2 [FUMARPROTOCETRARIC ACID]
AC50 [1]: 39.8 µM (inconclusive)

COc1cc2ccc(=O)oc2c2ccoc12 [SPHONDIN]
AC50 [1]: 3.98 µM (inconclusive)
